# In patent US20070178054A1, “ORAL ANTIMICROBIAL COMPOSITION” (priority 2005, published 2007):
# Tests used:
# Format in all cases: cell-based, Streptococcus mutans
# S. mutans UA159 [1] = assay: S. mutans growth in 96-well microtiter plate (OD 600 nm); settings: 24 h, E2 20 μg/ml, combination of both
# Procedure: (§1) Streptococcus mutans UA159 strain was used in these Examples. S. mutans strain UA159 was grown in Todd-Hewitt broth containing 0.3% yeast extract (THYE) at pH 7.0 and was subcultured routinely on THYE agar plates and incubated at 37° C. in an anaerobic chamber (5% CO2). In liquid media, cultures were incubated in closed screw-cap tubes without agitation at 37° C. in an anaerobic chamber (5% CO2)
# (§2) Wells without cells were used as blank controls.
# (§3) The microtiter plates were then incubated at 37° C. in an anaerobic chamber (5% CO2) for 24 hours without agitation. After the incubation, the growth was measured at 600 nm with a microplate reader. The planktonic cells were carefully removed, and plates were air dried overnight. The plates were then stained with 0.4% crystal violet for 10 minutes, rinsed with sterile distilled water and air dried for 15 minutes. Biofilm was quantified by measuring the absorbance of stained biofilm at 630 nm with a microplate reader.
# S. mutans UA159 [2] = assay: S. mutans biofilm formation, crystal violet staining (OD 630 nm); settings: 24 h, E2 20 μg/ml, combination of both
# Procedure: as §1, §2, §3
# [3] = test system: biofilm-embedded S. mutans; assay: Survival of biofilm-embedded S. mutans (CFU counts), E2 peptide compositions, 12-well plates; settings: 20 h biofilm, E2 20 μg/ml, combination of both
# Procedure: as §1
# (§4) Biofilms were developed on 12-well polystyrene microtiter plates to provide a rapid and simple method for assaying biofilm-embedded live oral bacteria (e.g. S. mutans). A 4× diluted THYE medium supplemented with final concentration of 0.01% hog gastric mucin (Sigma, St. Louis, Mo.) was used as biofilm medium (BM). Formation of biofilms was initiated by inoculating 20 μl of S. mutans cell suspension (1.2×10^7 CFU/ml) into each well containing 2 ml of BM and four wells were set up: two for control and two for treatment with compositions comprising synthetic E2 peptide and Nisin or E2 and CHX. After cultures were incubated at 37° C. for 20 hours under an anaerobic condition, fluid medium was removed. The wells were rinsed once with 10 mM PBS buffer (pH 7.2) and biofilm-embedded cells were collected in two ml PBS buffer, gently sonicated for 15 seconds, serially diluted, spread on THYE plates, and incubated at 37° C. under anaerobic conditions. Biofilm-embedded viable cells were quantified by colony forming unit (CFU) counts after 48 hours of incubation.
# [4] = test system: biofilm-embedded S. mutans; assay: Survival of biofilm-embedded S. mutans (CFU counts), CSP compositions, 12-well plates; settings: 20 h biofilm, combination of both
# Procedure: as §1
# as §4, with “developed in” for “developed on”, “mucin (Sigma)” for “mucin (Sigma, St. Louis, Mo.)”, “(BM). Fonnation” for “(BM). Formation”, “synthetic CSP” for “synthetic E2 peptide”, “or chlorhexidine or xylitol or triclosan or citric acid or zinc citrate or sodium fluoride or oleanolic acid or lansoprazole or epigallocatechin gallate or chitosan.” for “or E2 and CHX.”, “fluid media were” for “fluid medium was”
# [5] = test system: biofilm-embedded S. mutans; assay: Survival of biofilm-embedded S. mutans (CFU counts), E2 peptide compositions, 12-well plates; settings: 20 h biofilm, E2 20 μg/ml, combination of both; remark: listed apart in the source
# [6] = chlorhexidine 0.15 μg/ml, control 1.4
# [7] = CSP 40 μg/ml, chlorhexidine 0.15 μg/ml, control 1.4 × 10^6
# [8] = citric acid 1.2 mg/ml, control 0.34
# [9] = citric acid 1.2 mg/ml, control 1.23
# [10] = CSP 40 μg/ml, citric acid 1200 μg/ml, control 3.4 × 10^5
# [11] = citric acid 1200 μg/ml, control 1.7
# [12] = lansoprazole 0.1 mM, control 0.38
# [13] = lansoprazole 0.1 mM, control 1.32
# [14] = CSP 40 μg/ml, lansoprazole 37 μg/ml, control 1.2 × 10^6
# [15] = lansoprazole 37 μg/ml, control 8
# [16] = CSP 40 μg/ml, oleanolic acid 250 μg/ml, control 4 × 10^5
# [17] = sodium fluoride 600 μg/ml, control 0.40
# [18] = sodium fluoride 600 μg/ml, control 0.93
# [19] = CSP 40 μg/ml, sodium fluoride 250 μg/ml, control 2.6 × 10^5
# [20] = sodium fluoride 800 μg/ml, control 2.9
# [21] = triclosan 25 μg/ml, control 0.33
# [22] = triclosan 25 μg/ml, control 1.58
# [23] = CSP 40 μg/ml, triclosan 500 μg/ml, control 6.8 × 10^5
# [24] = xylitol 15.2 mg/ml, control 0.37
# [25] = xylitol 15.2 mg/ml, control 0.78
# [26] = CSP 40 μg/ml, zinc citrate 1200 μg/ml, control 8 × 10^5
# [27] = CSP 50 μg/ml, nisin 80 μg/ml, control 1.6 × 10^6
molecule,measurement,setting,value
"[H]/N=C(\N/C(=N/[H])NCCCCCCNC(=N)NC(=N)Nc1ccc(Cl)cc1)Nc1ccc(Cl)cc1 [CHX, Chlorhexidine, reference compound]",Growth (OD @ 600 nm),"S. mutans UA159 [1]; CHX 0.154 μg/ml, control 0.39",0.39 OD
same,Biofilm (OD @ 630 nm),"S. mutans UA159 [2]; CHX 0.154 μg/ml, control 0.88",1.00 OD
same,CFU × 10^6,[3]; [6],1.9 CFU × 10^6
same,CPU,[4]; [7],2 × 10^6 CFU
"O=C(O)CC(O)(CC(=O)O)C(=O)O [Citric acid, citric acid]",Growth (OD @ 600 nm),S. mutans UA159 [1]; [8],0.02 OD
same,Biofilm (OD @ 630 nm),S. mutans UA159 [2]; [9],0.38 OD
same,CPU,[4]; [10],8 × 10^4 CFU
same,CFU × 10^6,[5]; [11],0.05 CFU × 10^6
"O=C(O[C@@H]1Cc2c(O)cc(O)cc2O[C@@H]1c1cc(O)c(O)c(O)c1)c1cc(O)c(O)c(O)c1 [EGCg, Epigallocatechin gallate]",Growth (OD @ 600 nm),"S. mutans UA159 [1]; EGCg 150 μg/ml, control 0.32",0.08 OD
same,Biofilm (OD @ 630 nm),"S. mutans UA159 [2]; EGCg 150 μg/ml, control 1.52",0.41 OD
"Cc1c(OCC(F)(F)F)ccnc1C[S+]([O-])c1nc2ccccc2[nH]1 (stereo not drawn) [Lansoprazole, lansoprazole, reference compound]",Growth (OD @ 600 nm),S. mutans UA159 [1]; [12],0.4 OD
same,Biofilm (OD @ 630 nm),S. mutans UA159 [2]; [13],1.35 OD
same,CPU,[4]; [14],1 × 10^6 CFU
same,CFU × 10^6,[5]; [15],6.2 CFU × 10^6
"CC1(C)CC[C@]2(C(=O)O)CC[C@]3(C)C(=CC[C@@H]4[C@@]5(C)CC[C@H](O)C(C)(C)[C@@H]5CC[C@]43C)[C@@H]2C1 [OA, Oleanolic acid]",Growth (OD @ 600 nm),"S. mutans UA159 [1]; OA 2 μg/ml, control 0.4",0.32 OD
same,Biofilm (OD @ 630 nm),"S. mutans UA159 [2]; OA 2 μg/ml, control 0.8",0.94 OD
same,CPU,[4]; [16],1.7 × 10^5 CFU
"[F-].[Na+] [Sodium fluoride, sodium fluoride, reference compound]",Growth (OD @ 600 nm),S. mutans UA159 [1]; [17],0.02 OD
same,Biofilm (OD @ 630 nm),S. mutans UA159 [2]; [18],0.12 OD
same,CPU,[4]; [19],7 × 10^5 CFU
same,CFU × 10^6,[5]; [20],2.7 CFU × 10^6
"Oc1cc(Cl)ccc1Oc1ccc(Cl)cc1Cl [Triclosan, triclosan, reference compound]",Growth (OD @ 600 nm),S. mutans UA159 [1]; [21],0.33 OD
same,Biofilm (OD @ 630 nm),S. mutans UA159 [2]; [22],1.69 OD
same,CPU,[4]; [23],7 × 10^2 CFU
"OC[C@@H](O)[C@H](O)[C@@H](O)CO [Xylitol, xylitol]",Growth (OD @ 600 nm),S. mutans UA159 [1]; [24],0.07 OD
same,Biofilm (OD @ 630 nm),S. mutans UA159 [2]; [25],0.32 OD
"O=C([O-])CC(O)(CC(=O)[O-])C(=O)[O-].O=C([O-])CC(O)(CC(=O)[O-])C(=O)[O-].[Zn+2].[Zn+2].[Zn+2] [Zinc citrate, zinc citrate]",CPU,[4]; [26],0.8 × 10^5 CFU
"SGSLSTFFRLFNASFTQALGK (Synthetic E2) [Peptide E2, second arginine from the C' terminus substituted with alanine]",Growth (OD @ 600 nm),"S. mutans UA159 [1]; CHX 0.154 μg/ml, control 0.39",0.11 OD
same,Growth (OD @ 600 nm),"S. mutans UA159 [1]; EGCg 150 μg/ml, control 0.32",0.22 OD
same,Growth (OD @ 600 nm),"S. mutans UA159 [1]; OA 2 μg/ml, control 0.4",0.26 OD
same,Growth (OD @ 600 nm),"S. mutans UA159 [1]; chitosan 1 μg/ml, control 0.37",0.28 OD
same,Growth (OD @ 600 nm),S. mutans UA159 [1]; [8],0.26 OD
same,Growth (OD @ 600 nm),S. mutans UA159 [1]; [12],0.2 OD
same,Growth (OD @ 600 nm),"S. mutans UA159 [1]; nisin 80 μg/ml, control 0.36",0.11 OD
same,Growth (OD @ 600 nm),S. mutans UA159 [1]; [17],0.23 OD
same,Growth (OD @ 600 nm),S. mutans UA159 [1]; [21],0.12 OD
same,Growth (OD @ 600 nm),S. mutans UA159 [1]; [24],0.12 OD
same,Biofilm (OD @ 630 nm),"S. mutans UA159 [2]; CHX 0.154 μg/ml, control 0.88",0.34 OD
same,Biofilm (OD @ 630 nm),"S. mutans UA159 [2]; EGCg 150 μg/ml, control 1.52",0.92 OD
same,Biofilm (OD @ 630 nm),"S. mutans UA159 [2]; OA 2 μg/ml, control 0.8",0.33 OD
same,Biofilm (OD @ 630 nm),"S. mutans UA159 [2]; chitosan 1 μg/ml, control 2.10",1.18 OD
same,Biofilm (OD @ 630 nm),S. mutans UA159 [2]; [9],0.54 OD
same,Biofilm (OD @ 630 nm),S. mutans UA159 [2]; [13],0.4 OD
same,Biofilm (OD @ 630 nm),"S. mutans UA159 [2]; nisin 80 μg/ml, control 1.03",0.24 OD
same,Biofilm (OD @ 630 nm),S. mutans UA159 [2]; [18],0.16 OD
same,Biofilm (OD @ 630 nm),S. mutans UA159 [2]; [22],1.00 OD
same,Biofilm (OD @ 630 nm),S. mutans UA159 [2]; [25],0.34 OD
same,CFU × 10^6,[3]; [6],0.9 CFU × 10^6
same,CFU × 10^6,"[3]; nisin 80 μg/ml, control 2.8",2.5 CFU × 10^6
same,CFU × 10^6,"[5]; chitosan 1 μg/ml, control 1.4",0.1 CFU × 10^6
same,CFU × 10^6,[5]; [11],0.6 CFU × 10^6
same,CFU × 10^6,[5]; [15],4.3 CFU × 10^6
same,CFU × 10^6,[5]; [20],1 CFU × 10^6
SGSLSTFFRLFNRSFTQALGK (Streptococcus mutans) [CSP],CPU,"[4]; CSP 40 μg/ml, chitosan 0.25 μg/ml, control 7.6 × 10^5",2.2 × 10^5 CFU
same,CPU,[4]; [7],0.1 × 10^6 CFU
same,CPU,[4]; [10],2 × 10^4 CFU
same,CPU,[4]; [14],1.4 × 10^6 CFU
same,CPU,[4]; [16],2 × 10^4 CFU
same,CPU,[4]; [19],1.7 × 10^5 CFU
same,CPU,[4]; [23],7 × 10^4 CFU
same,CPU,[4]; [26],0.5 × 10^5 CFU
same,CPU,[4]; [27],1 × 10^6 CFU
nisin,Growth (OD @ 600 nm),"S. mutans UA159 [1]; nisin 80 μg/ml, control 0.36",0.23 OD
same,Biofilm (OD @ 630 nm),"S. mutans UA159 [2]; nisin 80 μg/ml, control 1.03",0.6 OD
same,CFU × 10^6,"[3]; nisin 80 μg/ml, control 2.8",3.0 CFU × 10^6
same,CPU,[4]; [27],1 × 10^6 CFU
